Measured values as given in paper PMC6249039 (Journal of medicinal chemistry, 2018).

How the values were obtained:
[1] = tested on: influenza; format: cell-based
[2] = target: HIV IN (Human immunodeficiency virus type 1 group M subtype B, UniProt P04585); format: biochemical; settings: 200 μM
[3] = target: human carbonic anhydrase II (hCAII) (Homo sapiens, UniProt P00918); assay: Cross-inhibition screen, human carbonic anhydrase II; format: biochemical; settings: 200 μM
[4] = target: T1, HDAC-6 (Homo sapiens, UniProt Q9UBN7); assay: Cross-inhibition screen, HDAC-6; format: biochemical; settings: 200 μM
T1 sequence (Q9UBN7 1-1215): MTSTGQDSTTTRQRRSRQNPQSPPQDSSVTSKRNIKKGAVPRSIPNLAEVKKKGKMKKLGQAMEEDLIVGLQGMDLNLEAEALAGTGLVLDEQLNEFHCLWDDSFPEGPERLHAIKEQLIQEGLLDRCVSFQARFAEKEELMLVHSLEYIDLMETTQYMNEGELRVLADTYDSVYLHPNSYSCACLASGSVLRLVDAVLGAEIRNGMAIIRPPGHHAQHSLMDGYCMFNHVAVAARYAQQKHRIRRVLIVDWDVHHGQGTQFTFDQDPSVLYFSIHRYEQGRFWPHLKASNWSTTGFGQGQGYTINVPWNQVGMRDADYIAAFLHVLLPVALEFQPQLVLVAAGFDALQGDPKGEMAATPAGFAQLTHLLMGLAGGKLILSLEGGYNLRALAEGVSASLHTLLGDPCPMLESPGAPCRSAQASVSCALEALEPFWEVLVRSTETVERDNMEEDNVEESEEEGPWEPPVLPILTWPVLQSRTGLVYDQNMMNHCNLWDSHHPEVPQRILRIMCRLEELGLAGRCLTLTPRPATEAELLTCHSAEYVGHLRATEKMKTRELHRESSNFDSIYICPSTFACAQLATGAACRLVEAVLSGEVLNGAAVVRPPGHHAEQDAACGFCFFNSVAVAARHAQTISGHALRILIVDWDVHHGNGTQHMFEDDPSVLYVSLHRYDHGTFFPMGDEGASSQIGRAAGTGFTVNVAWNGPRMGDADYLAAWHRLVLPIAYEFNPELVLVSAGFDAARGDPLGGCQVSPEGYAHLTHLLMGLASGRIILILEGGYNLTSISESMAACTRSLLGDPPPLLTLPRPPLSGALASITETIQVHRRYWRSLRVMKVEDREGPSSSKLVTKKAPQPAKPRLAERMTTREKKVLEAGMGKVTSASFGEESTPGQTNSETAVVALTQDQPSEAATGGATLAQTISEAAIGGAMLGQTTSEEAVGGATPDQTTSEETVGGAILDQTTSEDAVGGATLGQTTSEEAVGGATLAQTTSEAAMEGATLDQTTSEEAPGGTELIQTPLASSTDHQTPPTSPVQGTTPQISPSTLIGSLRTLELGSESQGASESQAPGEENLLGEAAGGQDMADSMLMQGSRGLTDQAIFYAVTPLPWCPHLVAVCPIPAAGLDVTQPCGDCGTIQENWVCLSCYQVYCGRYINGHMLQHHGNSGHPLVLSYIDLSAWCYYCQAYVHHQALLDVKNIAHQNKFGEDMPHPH

[5] = cited from earlier work

| SMILES | Antiviral activity in cell-based assays [1] | also measured |
| --- | --- | --- |
| Cc1cc(C(=O)O)c(O)c(=O)[nH]1 [Compound 18] | little antiviral activity | – |
| Cc1cc(=S)c(O)c(C(=O)O)o1 [Compound 22] | little antiviral activity | – |
| Cc1cc(=O)c(O)c(C(=O)O)o1 [Compound 1, 3-Hydroxy-6-methyl-4-oxo-4H-pyran-2-carboxylic acid] | little antiviral activity | Percent inhibition, HIV IN 3'-processing activity [2]: no inhibition; Percent inhibition, hCAII [3]: no inhibition; Percent inhibition, HDAC-6 [4]: no inhibition |
| O=C(O)c1cccc(O)c1O [Compound 7] | – | pKa reported, first value ([5]; phenolic oxygen): 10.30; pKa reported, second value ([5]; phenolic oxygen): 13.48 |
| O=C(O)c1cccc(=O)n1O [Compound 5] | – | pKa reported ([5]; N-hydroxy donor oxygen): 7.51 |
| Cc1cc(=O)c(O)c(C(=O)O)[nH]1 [Compound 17, 3-Hydroxy-6-methyl-4-oxo-1,4-dihydropyridine-2-carboxylic acid] | little antiviral activity | – |
| O=c1cc[nH]c(-c2nnn[nH]2)c1O [Compound 27] | little antiviral activity | – |
| O=C(O)c1occc(=O)c1O [Compound 3] | little antiviral activity | – |
| O=c1c(O)ccccc1O [Compound 32, α-hydroxytropolone] | little antiviral activity | – |
| Cc1cc(O)c(=O)c(O)cc1C(=O)O [Compound 33, 5-Methyl-2,7-dihydroxytropolone-4-carboxylic acid] | little antiviral activity | – |
